Laboratory results: publication PMC3750255, “Inhibition of Mycoplasma pneumoniae growth by FDA-approved anticancer and antiviral nucleoside and nucleobase analogs” (BMC Microbiology, 2013)
In brackets after ≈: the same amount, converted by molar mass. Where two headings read alike, the source gives them in different places.

How the values were obtained:
[1] = test system: M. pneumoniae thyA mutant (lacking TS activity); experiment: microbe, parasite or virus in culture; type: cell-based, Mycoplasma pneumoniae; conditions: Mycoplasmoides pneumoniae, read-out: thyA mutant MIC
Procedure: (§1) A series dilution of each compound in Mycoplasma growth medium was added to Mpn cultures in 96-well plates. The plates were sealed and incubated at 37°C. Mpn growth was monitored by using growth index value e.g. the ratio of absorbance at 450 nm and 560 nm of the culture medium. Thirty nucleoside and nucleobase analogs and a nucleoside transporter inhibitor were included, and two Mpn strains, wild type and a thyA mutant (lacking TS activity), were used.
(§2) Nucleoside and nucleobase analogs were dissolved in dimethyl sulfoxide (DMSO) as stock solutions and diluted with Mpn culture medium to the desired concentration immediately prior to use.
(§3) Mpn laboratory strain M129 wild type and a thyA mutant strain [31] were used in this study. Mpn was cultured at 37°C in a CO2 incubator using 75 cm^2 tissue culture flasks containing 50 ml Hayflick’s medium, and harvested at day 4 when the medium color change was observed. The cells were harvested and the pellet was resuspended in 6 ml fresh medium and the cfu/ml was determined by serial dilution (10-fold) and plating on broth agar plate. Colonies was counted and cfu/ml was calculated.
(§4) Inhibition studies were performed in 96-well plates containing 200 μl Mpn culture (approximately 10^6 cfu ml^-1) in Hayflick’s medium and 200 μl each compound in series dilutions (2-fold) with the growth medium, with three to four replicas. The plates were sealed with clear adhesive sheets and incubated at 37°C incubator. Absorbance ratio at 450 nm and 560 nm was used as Mpn growth index, which was measured daily, and by visual detection for at least 8 days, as previously described. […] The MICs (minimal inhibitory concentration required to inhibit Mpn growth to 90%) were determined as the lowest concentration at which the growth index was ≈ 10% of the control values (at the time when the control culture medium color turned yellow), essentially as described.

[2] = test system: M. pneumoniae wild type (laboratory strain M129); experiment: Mpn growth inhibition in 96-well plates (growth index A450/A560), wild type strain; type: cell-based, Mycoplasma pneumoniae; conditions: for MIC: Mycoplasmoides pneumoniae
Procedure: as §1, §2, §3, §4

human HPRT = target: T1, human HPRT (Homo sapiens, UniProt P00492); experiment: HPRT inhibition, DE-81 filter paper assay; type: biochemical
T1 construct: made in house
T1 sequence (P00492 1-218): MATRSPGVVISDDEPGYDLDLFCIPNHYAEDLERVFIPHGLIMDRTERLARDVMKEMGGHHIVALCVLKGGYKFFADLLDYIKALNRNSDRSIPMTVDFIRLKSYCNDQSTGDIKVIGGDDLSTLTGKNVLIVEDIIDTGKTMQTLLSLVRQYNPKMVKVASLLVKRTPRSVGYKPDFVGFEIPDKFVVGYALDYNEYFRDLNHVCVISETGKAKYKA
Procedure: (§5) The reaction was initiated by addition of the enzyme, and at 0, 5, 10, and 15 min intervals, 10 μl reaction mixture was withdrawn and spotted onto the DE81 filter paper and dried. The unreacted substrate was washed and the products were eluted and counted in a liquid scintillation counter. With [^3H]-Gua as substrate the reaction (in a total of 25 μl) was initiated by addition of the enzyme (10 μl), incubated at 37°C for 2 min, stopped by addition of 1 M HCl (10 μl), and placed immediately on ice. After neutralization, 15 μl of the mixture was spotted onto the DE81-filter paper. The filters were then washed, and the products were eluted and counted by liquid scintillation.

Mpn HPRT = target: T2, Mpn HPRT (Mycoplasmoides pneumoniae, UniProt P75119); experiment: biochemical
T2 sequence (P75119 1-175): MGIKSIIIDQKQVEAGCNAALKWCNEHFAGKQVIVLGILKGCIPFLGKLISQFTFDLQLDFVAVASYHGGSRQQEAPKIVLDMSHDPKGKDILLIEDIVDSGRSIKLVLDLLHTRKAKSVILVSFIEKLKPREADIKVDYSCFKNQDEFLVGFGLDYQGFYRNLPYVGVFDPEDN
Procedure: as §5

[3] = minimal concentration producing 90% inhibition, wild type Mpn, read-out: Wild type MIC
[4] = IC50 Human HPRT, substrate hypoxanthine, 10 μM [3H]-hypoxanthine

Row | SMILES | MIC [1] | MIC ([2]; read-out: Wild type MIC) | other results
1 | Nc1nc(=O)[nH]cc1F [5-fluorocytosine] | 31.2 µg/mL (≈ 242 µM) | 31.2 µg/mL (≈ 242 µM) | 
2 | CCc1nc(N)nc(N)c1-c1ccc(Cl)cc1 [Pyrimethamine] | > 500 µg/mL | > 500 µg/mL | 
3 | Cn1cnc([N+](=O)[O-])c1Sc1ncnc2nc[nH]c12 [Azathioprine] | > 500 µg/mL | > 500 µg/mL | 
4 | Cn1c(=O)c2c(ncn2C)n(C)c1=O [Caffeine] | > 500 µg/mL |  | MIC [2, 3]: > 500 µg/mL; IC50 (human HPRT; [4]): 2510 ± 156 µM
5 | Nc1ncn([C@@H]2O[C@H](CO)[C@@H](O)[C@H]2O)c(=O)n1 [5-azacytidine] | > 500 µg/mL | > 500 µg/mL | 
6 | Cn1c(=O)c2c(ncn2CC(O)CO)n(C)c1=O (centres unmarked) [7-(2,3-dihydroxypropyl)theophylline] | > 500 µg/mL | > 500 µg/mL | 
7 | NC(=O)c1ncn([C@@H]2O[C@H](CO)[C@@H](O)[C@H]2O)n1 [Ribavirin] | > 500 µg/mL | 62.5 µg/mL (≈ 256 µM) | Inhibition of wild type Mpn growth (in words) ([2]; wild type Mpn): inhibited wild type Mpn
8 | O=c1[nH]cc(F)c(=O)[nH]1 [5-fluorouracil] | 31.2 µg/mL (≈ 240 µM) | 31.2 µg/mL (≈ 240 µM) | 
9 | Nc1ccn([C@H]2CC[C@@H](CO)O2)c(=O)n1 [Zalcitabine] | > 500 µg/mL | > 500 µg/mL | 
10 | Cc1cn([C@H]2C=C[C@@H](CO)O2)c(=O)[nH]c1=O [Stavudine] | 17.8 µg/mL (≈ 79.4 µM) | 7.8 µg/mL (≈ 34.8 µM) | 
11 | CC(=O)CCCCn1c(=O)c2c(ncn2C)n(C)c1=O [Pentoxifylline] | > 500 µg/mL | 62.5 µg/mL (≈ 225 µM) | Inhibition of wild type Mpn growth (in words) ([2]; wild type Mpn): inhibited wild type Mpn
12 | CN(C)[C@@H]1C(O)=C(C(N)=O)C(=O)[C@@]2(O)C(O)=C3C(=O)c4c(O)cccc4[C@@](C)(O)[C@H]3C[C@@H]12 [tetracycline] |  |  | Mpn growth in control cultures (in words) ([2]; 2 μg/ml tetracycline, up to 8 days): no growth; MIC ([2]; strain not specified, 90% growth inhibition, read-out: MIC (Mpn growth)): 0.1 µg/mL (≈ 0.225 µM)
13 | Oc1ncnc2[nH]ncc12 [Allopurinol] | > 500 µg/mL |  | MIC [2, 3]: > 500 µg/mL
14 | Nc1ccn([C@@H]2CS[C@H](CO)O2)c(=O)n1 [Lamivudine] | > 500 µg/mL | > 500 µg/mL | 
15 | Sc1ncnc2nc[nH]c12 [6-mercaptopurine (6-MP), 6-mercaptopurine] | > 500 µg/mL | > 500 µg/mL | IC50 (Mpn HPRT; substrate guanine, 10 μM [3H]-guanine): 282 ± 21 µM; IC50 (Mpn HPRT; substrate hypoxanthine, 10 μM [3H]-hypoxanthine): 89.7 ± 14.5 µM; Inhibition of Mpn growth (in words) ([2]; strain not specified): did not inhibit Mpn growth; IC50 (human HPRT; 10 μM [3H]-guanine, read-out: IC50 Human HPRT, substrate guanine): 25.1 ± 3 µM; IC50 (human HPRT; [4]): 22.5 ± 3.6 µM
